# Source: ChEMBL document CHEMBL1201862, “PubChem BioAssay data set” (2004)
#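 Following 48 hours of exposure in 96-well plates, responses at five concentrations were used to interpolate endpoints linearly. GI50 = concentration required for 50% inhibition of growth.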 Calls of active or inactive are those of the source. Rule as the data show it: active = GI50 up to about 1.1 µM and inactive = higher.
# How the values were obtained:
# Test in all cases: NCI tumour cell line growth inhibition, 48 h
# [1] = tested on: SR
# [2] = tested on: OVCAR-4
# [3] = tested on: 786-0
# [4] = tested on: HOP-62
# [5] = tested on: SK-MEL-28
# [6] = tested on: HCT-15
# [7] = tested on: T47D
# [8] = tested on: SN12C
# [9] = tested on: MDA-MB-435
# [10] = tested on: SF-295
# [11] = tested on: Malme-3M
# [12] = tested on: KM12
# [13] = tested on: SNB-19
# [14] = tested on: OVCAR-3
# [15] = tested on: A549
# [16] = tested on: ACHN
# [17] = tested on: IGROV-1
# [18] = tested on: MDA-N
# [19] = tested on: COLO 205
# [20] = tested on: PC-3
# [21] = tested on: MDA-MB-231
# [22] = tested on: UACC-62
# [23] = tested on: NCI-H23
# [24] = tested on: DU-145
# [25] = tested on: HCC 2998
# [26] = tested on: BT-549
# [27] = tested on: CAKI-1
# [28] = tested on: CCRF-CEM
# [29] = tested on: HL-60
# [30] = tested on: NCI-H226
# [31] = tested on: SNB-75
# [32] = tested on: U-251
# [33] = tested on: A498
# [34] = tested on: MOLT-4
# [35] = tested on: NCI-H460
# [36] = tested on: SF-539
# [37] = tested on: RPMI-8226
# [38] = tested on: SW-620
# [39] = tested on: Hs-578T
# [40] = tested on: OVCAR-5
# [41] = tested on: M14
# [42] = tested on: UACC-257
# [43] = tested on: OVCAR-8
# [44] = tested on: HOP-92
# [45] = tested on: RXF 393
# [46] = tested on: HT-29
# [47] = tested on: SK-MEL-2
# [48] = tested on: HCT-116
# [49] = tested on: SK-OV-3
# [50] = tested on: UO-31
# [51] = tested on: EKVX
# [52] = tested on: MCF7
# [53] = tested on: TK-10
# [54] = tested on: K562
# [55] = tested on: NCI/ADR-RES
# [56] = tested on: NCI-H522
# [57] = tested on: SK-MEL-5
# [58] = tested on: SF-268
# [59] = tested on: LOX IMVI
smiles,measurement,setting,value
COc1ccc2nc3cc(Cl)ccc3c(NCCNC(=O)Cn3c(=O)n(C)c(=O)c4c3nc3c(c(=O)n(C)c(=O)n3C)[n+]4[O-])c2c1,GI50,[1],18.5 µM (inactive)
same,GI50,[2],> 64.7 µM (inactive)
same,GI50,[3],43.1 µM (inactive)
same,GI50,[4],20.7 µM (inactive)
same,GI50,[5],> 31.6 µM (inactive)
same,GI50,[6],> 100 µM
same,GI50,[7],35.6 µM (inactive)
same,GI50,[8],36.7 µM (inactive)
same,GI50,[9],> 45.7 µM (inactive)
same,GI50,[10],44.8 µM (inactive)
same,GI50,[11],37.2 µM (inactive)
same,GI50,[12],61.8 µM (inactive)
same,GI50,[13],23.9 µM (inactive)
same,GI50,[14],39.5 µM (inactive)
same,GI50,[15],71.8 µM (inactive)
same,GI50,[16],36.8 µM (inactive)
same,GI50,[17],19.1 µM (inactive)
same,GI50,[18],46.3 µM (inactive)
same,GI50,[19],> 67.1 µM (inactive)
same,GI50,[20],38.4 µM (inactive)
same,GI50,[21],50.7 µM (inactive)
same,GI50,[22],> 38.3 µM (inactive)
same,GI50,[23],21.2 µM (inactive)
same,GI50,[24],> 84.3 µM (inactive)
same,GI50,[25],30.2 µM (inactive)
same,GI50,[26],23 µM (inactive)
same,GI50,[27],> 80 µM (inactive)
same,GI50,[28],50 µM (inactive)
same,GI50,[29],> 100 µM (inactive)
same,GI50,[30],35.6 µM (inactive)
same,GI50,[31],33.9 µM (inactive)
same,GI50,[32],21 µM (inactive)
same,GI50,[33],> 60.4 µM (inactive)
same,GI50,[34],22.9 µM (inactive)
same,GI50,[35],44.7 µM (inactive)
same,GI50,[36],23.7 µM (inactive)
same,GI50,[37],> 80.9 µM (inactive)
same,GI50,[38],34.2 µM (inactive)
same,GI50,[39],20.3 µM (inactive)
same,GI50,[40],> 72.8 µM (inactive)
same,GI50,[41],> 81.8 µM (inactive)
same,GI50,[42],32.7 µM (inactive)
same,GI50,[43],2.47 µM (inactive)
same,GI50,[44],28.1 µM (inactive)
same,GI50,[45],42.1 µM (inactive)
same,GI50,[46],24.2 µM (inactive)
same,GI50,[47],35.2 µM (inactive)
same,GI50,[48],35.2 µM (inactive)
same,GI50,[49],32.1 µM (inactive)
same,GI50,[50],> 100 µM (inactive)
same,GI50,[51],34.7 µM (inactive)
same,GI50,[52],33 µM (inactive)
same,GI50,[53],29 µM (inactive)
same,GI50,[54],46.8 µM (inactive)
same,GI50,[55],38.8 µM (inactive)
same,GI50,[56],25.4 µM (inactive)
same,GI50,[57],58.2 µM (inactive)
same,GI50,[58],17.2 µM (inactive)
same,GI50,[59],38.3 µM (inactive)
Nc1nc(Cl)cc(NCC2(CO)CCCC2)n1,GI50,[1],> 100 µM (inactive)
same,GI50,[2],19 µM (inactive)
same,GI50,[3],> 100 µM (inactive)
same,GI50,[4],> 100 µM (inactive)
same,GI50,[5],> 100 µM (inactive)
same,GI50,[6],> 100 µM
same,GI50,[7],> 100 µM (inactive)
same,GI50,[8],> 100 µM (inactive)
same,GI50,[9],> 100 µM (inactive)
same,GI50,[10],> 100 µM (inactive)
same,GI50,[11],> 100 µM (inactive)
same,GI50,[12],> 100 µM (inactive)
same,GI50,[13],> 100 µM (inactive)
same,GI50,[14],> 100 µM (inactive)
same,GI50,[15],> 100 µM (inactive)
same,GI50,[16],> 100 µM (inactive)
same,GI50,[17],> 100 µM (inactive)
same,GI50,[18],> 100 µM (inactive)
same,GI50,[19],> 100 µM (inactive)
same,GI50,[20],> 100 µM (inactive)
same,GI50,[21],> 100 µM (inactive)
same,GI50,[22],> 100 µM (inactive)
same,GI50,[23],65.6 µM (inactive)
same,GI50,[24],> 100 µM (inactive)
same,GI50,[25],> 100 µM (inactive)
same,GI50,[26],> 100 µM (inactive)
same,GI50,[27],> 100 µM (inactive)
same,GI50,[28],> 100 µM (inactive)
same,GI50,[29],> 100 µM (inactive)
same,GI50,[30],> 100 µM (inactive)
same,GI50,[31],85.7 µM (inactive)
same,GI50,[32],> 100 µM (inactive)
same,GI50,[33],> 100 µM (inactive)
same,GI50,[34],> 100 µM (inactive)
same,GI50,[35],> 100 µM (inactive)
same,GI50,[36],> 100 µM (inactive)
same,GI50,[37],> 100 µM (inactive)
same,GI50,[38],> 100 µM (inactive)
same,GI50,[39],> 100 µM (inactive)
same,GI50,[40],> 100 µM (inactive)
same,GI50,[41],> 100 µM (inactive)
same,GI50,[42],65.8 µM (inactive)
same,GI50,[43],> 100 µM (inactive)
same,GI50,[44],52.5 µM (inactive)
same,GI50,[45],> 100 µM (inactive)
same,GI50,[46],> 100 µM (inactive)
same,GI50,[47],> 100 µM (inactive)
same,GI50,[48],> 100 µM (inactive)
same,GI50,[49],> 100 µM (inactive)
same,GI50,[50],> 100 µM (inactive)
same,GI50,[51],> 100 µM (inactive)
same,GI50,[52],75.2 µM (inactive)
same,GI50,[53],> 100 µM (inactive)
same,GI50,[54],> 100 µM (inactive)
same,GI50,[55],55.8 µM (inactive)
same,GI50,[56],49.1 µM (inactive)
same,GI50,[57],80.4 µM (inactive)
same,GI50,[58],> 100 µM (inactive)
same,GI50,[59],59.7 µM (inactive)
